Experimental data published in US12178223B2, “Insect life cycle interruption agent(LCIA) formulations and their manufacture and use” (priority 2020, dated 2024).
Several values for one entry are separate records, joined by “and”; a condition that tells them apart may be missing. Equal values may be shown once. Marks after values point to notes of the source that are not given here.

Legend:
[1] = Cyromazine residue in eggs (Example 15); set-up: species or system Lohman laying hens; settings: female, Lohman, chicken, in vivo
From the text: (§1) Twenty four Lohman laying hens were placed in conventional layer cages (2 birds per cage) and divided into 6 experimental groups of 4 birds per group.
(§2) The hens were fed for three weeks with laying hens feed (17.5% protein, no AGP) supplemented with a Cyromazine product as summarized in Table 12.
After four weeks of feeding according to the experimental groups of example 13, eggs were collected.
For each treatment 16 eggs were collected (4 eggs from each hen). The contents of the 4 eggs (without the shell) of each bird were pooled in one container marked to indicate the treatment. Each container was a sample. A total of 4 tests were performed for each treatment. The containers were packed in a temperature-controlled pack that was sent for Cyromazine analysis to Eurofines laboratory in Germany.
Samples are weighed and one or more samples is spiked with an internal standard.
Acetonitrile is added and the sample is vortexed. Petroleum ether is added and a liquid/liquid extraction is performed in a shaker followed by centrifugation. An aliquot of the acetonitrile phase is removed and reduced in volume to near dryness then resolved by adding water and methanol. The mixture is vortexed then filtered by membrane filter and analyzed—Liquid chromatographic determination with LC-MS/MS. Quantitation is via comparison with samples spiked with an internal standard.

[2] = tested on: young fly larvae (stage 1); experiment: Insecticidal activity in manure of hens fed Cyromazine products (Example 14); format: in vivo; settings: Cyromazine in feed 5 PPM
Procedure: as §1, §2
After three weeks of feeding according to the experimental groups of example 3, manure was collected from each group of hens. The manure was frozen for 48 hours to destroy any insects present and then thawed.
For each experimental group, 5 cups containing 100 g thawed manure were prepared (70-75% moisture). Each cup represents a group replicate.
Thirty young fly larvae (stage 1) were placed in each cup and incubated in an insectarium for 10 days. After ten days the pupae/larvae/flies were counted. Analysis of variance was done using a One Way Anova test and the comparison of means was done with Tukey-Kramer test, significance level-α=0.05.

Compound: Nc1nc(N)nc(NC2CC2)n1 [NGNEC, Cyromazine]
- concentration at 4 weeks [1]: 88 ng/g
- Cyromazine in eggs, % of Larvadex 0.5% group ([1]; 4 weeks): 102%
- Dead larvae and pupas % [2]: 0%
- Normal pupa % [2]: 0^b %
- Survival rate = (No of flies + normal pupas)/30*100 [2]: 0% and 0^b %
- Flies % ([2]; 10 days): 0^b %
